Values joined by “and” are separate entries in the source; they are usually repeats but may differ in a detail not shown here. Equal values may be shown once. “Also recorded” adds a separate entry of the source.
Assays:
[1] = tested on: cataract-causing mutant crystallin proteins; assay: Intracellular aggregation of mutant crystallins in HLEB-3 cells; type: cell-based, human; conditions: then 12 h
Description: (§1) FIG. 9A, FIG. 9B, and FIG. 9C show inhibition of crystallin mutant aggregation by wild-type LSS and lanosterol in HLEB-3 cells (FIG. 9A) or HeLa cells (FIG. 9B). Cells co-transfected with LSS and crystallin mutant constructs were cultured for 24 h before assaying for aggregates. The rescue experiments were performed by addition of 40 […] μM sterols (lanosterol or cholesterol) to the cell culture medium for 2 h, the sterol medium was then replaced with fresh culture medium and the cells were cultured for a further 12 h. The percentage of cells with crystallin aggregates were calculated from ten randomly selected viewing fields. The values of the wild-type LSS group, mutant group, or mutant plus lanosterol group were calculated. […] After transfection for 4 h and incubation in fresh culture medium for another 24 h, the cells were lysed and centrifuged to separate supernatant and insoluble fractions. LSS and crystallin fusion proteins were detected by antibodies against Flag and GFP, respectively. Red arrows indicate higher crystalline content in the soluble fraction versus in the insoluble fraction in cells containing the WT-LSS.
(§2) Cells were transfected with various crystallin constructs for 4 h and cultured for an additional 24 h in fresh culture medium. Then the cells were treated with 10, 20 and 40 μM lanosterol in 1% (HLEB-3 cells) or 2% DMSO (HeLa cells) for 2 h and cultured for another 12 h. Cells treated with 1% (HLEB-3 cells) or 2% DMSO (HeLa cells) were used as the controls. Formation of intracellular aggregates of various crystallin proteins was visualized by fluorescence of GFP (green) and the nuclei were stained with Hoechst 33342 (blue). Typical intracellular aggregates are indicated by arrows.
(§3) The impact of LSS and lanosterol on intracellular crystallin aggregation were evaluated in single-blinded observer studies. Experiments have been repeated at least three times. P values were calculated using Student's t-tests. Fluorescence microscopy. […]

[2] = tested on: naturally occurring cataractous lenses from rabbits; assay: Treatment of isolated cataractous rabbit lenses; set-up: key to cataract grade before treatment / cataract grade after treatment: Grade 0: absence of opacification (gridlines clearly visible); Grade 1: a slight degree of opacification (minimal clouding of gridlines, with gridlines still visible); Grade 2: presence of diffuse opacification involving almost the entire lens (moderate clouding of gridlines, with main gridlines visible); Grade 3: presence of extensive, thick opacification involving the entire lens (total clouding of gridlines, with gridlines not seen at all)
Text: FIG. 12A, FIG. 12B, and FIG. 12C show grading system of cataractous lenses. […] The degree of transparency was scored as 0, a clear lens and absence of opacification (gridlines clearly visible, a′); 1, a blurry lens and a slight degree of opacification (minimal clouding of gridlines, with gridlines still visible, b′); 2, a cloudy lens and presence of diffuse opacification involving almost the entire lens (moderate clouding of gridlines, with main gridlines visible, c′); or 3, an opaque lens and presence of extensive thick opacification involving the entire lens (total clouding of gridlines, with gridlines not seen at all, d′). […] Rabbit lenses (n=13) were dissected and incubated with lanosterol for 6 days and subsequently assessed for lens clarity and transparency. Pairs of photographs of each cataractous rabbit lens showing before and after treatment with scores underneath are shown. […] Dog eyes with cataracts (n=7) were treated with lanosterol for 6 weeks and assessed for lens clarity and transparency. A pair of photographs of each study eye before and after treatment is shown with scores underneath. Three control eyes treated with vehicles alone are also presented.
Treatment of cataractous rabbit lenses. Rabbits were euthanized by CO2 inhalation and lenses were immediately dissected and treated with vehicle or lanosterol dissolved in vehicle to make 25 mM solutions. Lens tissues were incubated in these solutions for 6 days in the dark at room temperature. Cataracts were examined under a microscope and photographed. Degree of cataract was assessed by a blinded examiner using a previously described opacification grading system, shown below^32,33. Improvements in lens clarity and transparency were quantified by visual inspection and grading. Lens clarity was scored by transmission of light, clarity of a grid image underneath the lens (FIG. 12A, FIG. 12B, FIG. 12C), and improvement in overall clarity of a lens or improvement in clarity of localized areas of cortical cataract. Wilcoxon test was used to evaluate the treatment effect.
Cataract grading system. […]

[3] = tested on: cataract-causing mutant crystallin proteins; assay: Intracellular aggregation of mutant crystallins in HeLa cells; type: cell-based, human; conditions: then 12 h
Description: as §1, §2, §3

## CC(C)=CCC[C@@H](C)[C@H]1CC[C@@]2(C)C3=C(CC[C@]12C)[C@@]1(C)CC[C@H](O)C(C)(C)[C@@H]1CC3 [lanosterol, 3β-Hydroxy-8,24-lanostadiene; 8,24-Lanostadien-3β-ol]
[1]; HLEB-3 cells co-transfected with LSS and crystallin mutant, 40 μM sterols 2 h, lanosterol P<1×10^−4, cholesterol P>0.1
  percentage of cells with crystallin aggregates versus control group (rescue): significantly lower
[1]; HLEB-3 cells, 10, 20 and 40 μM lanosterol in 1% DMSO for 2 h, concentration-dependent
  intracellular aggregation caused by cataract-causing mutant crystallin proteins: significantly reduced the intracellular aggregation
[2]; isolated rabbit lens incubated in 25 mM lanosterol solution for 6 days, n=13
  cataract grade after treatment: 1 and 0
[2]; isolated rabbit lens, baseline of each lanosterol-treated sample, n=13
  cataract grade before treatment: 2 and 1 and 3
[2]; isolated rabbit lenses, 25 mM lanosterol, 6 days, P<0.003, Wilcoxon Test
  cataract severity / lens clarity: strong trend of reduction in cataract severity; also recorded: reduced cataract severity and increased clarity
[3]; HeLa cells co-transfected with LSS and crystallin mutant, 40 μM sterols 2 h, lanosterol P<1×10^−4, cholesterol P>0.1
  percentage of cells with crystallin aggregates versus control group (rescue): significantly lower
[3]; HeLa cells, 10, 20 and 40 μM lanosterol in 2% DMSO for 2 h, concentration-dependent
  intracellular aggregation caused by cataract-causing mutant crystallin proteins: significantly reduced the intracellular aggregation

Reference: patent publication US10471076B2, “Compositions and methods to treat vision disorders” (YouHealth Biotech, Limited, priority 2014, dated 2019)
